Measured values reported in ChEMBL document CHEMBL1201862, “PubChem BioAssay data set” (2004).
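How tested: cells in 96-well plates exposed to compound for 48 hours at five concentrations. GI50 = concentration required for 50% inhibition of growth.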 Calls of active or inactive are those of the source. Cut-off read from the data, not from the text of the source: active = GI50 up to about 1.1 µM and inactive = higher.

Tests used:
Test in all cases: NCI-60 cell line screen, 48 h
SNB-19 = system: SNB-19
HCC 2998 = system: HCC 2998
HCT-116 = system: HCT-116
MDA-MB-231 = system: MDA-MB-231
OVCAR-8 = system: OVCAR-8
OVCAR-5 = system: OVCAR-5
UACC-257 = system: UACC-257
SK-MEL-28 = system: SK-MEL-28
CAKI-1 = system: CAKI-1
SF-295 = system: SF-295
CCRF-CEM = system: CCRF-CEM
NCI-H23 = system: NCI-H23
TK-10 = system: TK-10
LOX IMVI = system: LOX IMVI
HOP-92 = system: HOP-92
EKVX = system: EKVX
ACHN = system: ACHN
IGROV-1 = system: IGROV-1
A549 = system: A549
NCI-H226 = system: NCI-H226

Measured: GI50

COc1ccc(C2=C(Cl)c3cc(OC)c(OC)cc3C2Cl)cc1 (stereo not given)
inactive: SNB-19 18.7 µM | HCC 2998 14.3 µM | HCT-116 14.2 µM | MDA-MB-231 17.7 µM | OVCAR-8 16.5 µM | OVCAR-5 15.5 µM | UACC-257 17.1 µM | SK-MEL-28 16 µM | CAKI-1 15.4 µM | SF-295 15.4 µM | CCRF-CEM 2.84 µM | NCI-H23 > 37.4 µM | TK-10 19.7 µM | LOX IMVI 12.2 µM | HOP-92 12.2 µM | EKVX 16.9 µM | ACHN 13.9 µM | IGROV-1 17.4 µM | A549 15.4 µM | NCI-H226 21.3 µM

COC(=O)C(Cc1c[nH]c2ccccc12)NC(=O)c1ccc(-c2ccc(Cl)cc2Cl)o1 (stereo not given)
inactive: SNB-19 > 100 µM | HCC 2998 18.4 µM | HCT-116 22.3 µM | MDA-MB-231 15.5 µM | OVCAR-8 54.1 µM | OVCAR-5 > 100 µM | UACC-257 16.9 µM | SK-MEL-28 65.6 µM | CAKI-1 42.7 µM | SF-295 40.5 µM | CCRF-CEM 20.6 µM | NCI-H23 73.3 µM | TK-10 63.5 µM | LOX IMVI 53 µM | HOP-92 17.5 µM | EKVX 27.4 µM | ACHN 38.4 µM | IGROV-1 32.6 µM | A549 34.9 µM | NCI-H226 91.4 µM

Cc1nc(Nc2nc3ccccc3[nH]2)[nH]c(=O)c1CCO
inactive: SNB-19 > 100 µM | HCC 2998 > 100 µM | HCT-116 77.6 µM | MDA-MB-231 27.4 µM | OVCAR-8 > 53.2 µM | OVCAR-5 > 86.9 µM | UACC-257 45.8 µM | SK-MEL-28 > 100 µM | CAKI-1 53.5 µM | SF-295 > 100 µM | CCRF-CEM > 69 µM | NCI-H23 98.6 µM | TK-10 39.4 µM | LOX IMVI 44.8 µM | HOP-92 55.3 µM | EKVX > 100 µM | ACHN 50.9 µM | IGROV-1 12.3 µM | A549 > 100 µM | NCI-H226 26.6 µM

COC(=O)c1cc(C)ccc1CC(Cc1cccc(C)c1)C(=O)OC (stereo not given)
inactive: SNB-19 > 100 µM | HCC 2998 > 100 µM | HCT-116 80.7 µM | MDA-MB-231 > 100 µM | OVCAR-8 > 100 µM | OVCAR-5 17.3 µM | UACC-257 > 100 µM | SK-MEL-28 > 100 µM | CAKI-1 > 100 µM | SF-295 > 100 µM | CCRF-CEM 46.2 µM | NCI-H23 38.5 µM | TK-10 > 100 µM | LOX IMVI > 100 µM | HOP-92 25.8 µM | EKVX 59.2 µM | ACHN > 100 µM | IGROV-1 > 100 µM | A549 > 100 µM | NCI-H226 > 100 µM
